Test results published in patent US11787839B2, “Targeting α2δ-1-bound glutamate receptors for treating diseases and disorders” (Board of Regents, The University of Texas System, priority 2017, dated 2023).

Assays:
anesthetized rats = experiment: PVN microinjection and recording of RSNA and ABP (Ang II); format: in vivo, rat
Method: PVN microinjection and recording of renal sympathetic nerve activity: Rats were anesthetized with a mixture of α-chloralose (60 mg/kg, i.p.) and urethane (800 mg/kg, i.p.). A retroperitoneal incision was made, and a branch of the left renal postganglionic sympathetic nerve was isolated under a surgical microscope. The renal sympathetic nerve was cut distally to ensure that afferent nerve activity was not recorded. The renal sympathetic nerve activity (RSNA), arterial blood pressure (ABP), and heart rate (HR) were recorded using a 1401-PLUS analog-to-digital converter and Spike2 system (Cambridge Electronic Design, Cambridge, UK). A microinjection pipette (tip diameter, 20-30 μm) was advanced into the PVN according to the following stereotactic coordinates: 1.6-2.0 mm caudal to the bregma, 0.5 mm lateral to the midline, and 7.0-7.5 mm ventral to the dura. The microinjection was done using a calibrated microinjection system (Nanoject II; Drummond Scientific) and monitored using a surgical microscope as described previously (Li and Pan, 2006, 2007; Qiao et al., 2017). Ang II (200 μmol/L, 50 nl) was microinjected into the PVN to observe the change in RSNA and ABP in the absence or presence of α2δ-1Tat peptide (100 μmol/L, 50 nl) or control peptide (100 μmol/L, 50 nl). The microinjections were separated by 10- to 15-min intervals to allow recovery of the response. To determine the location of the injection site and diffusion of the drugs in the PVN, 5% rhodamine-labeled fluorescent microspheres (0.04 μm; Molecular Probes) were included in the injection solution (Li and Pan, 2006, 2007; Qiao et al., 2017).

morphine-treated rats = experiment: Opioid-induced hyperalgesia and analgesic tolerance in rats; details: co-treatment: gabapentin 100 mg/kg i.p. or peptide 1 μg intrathecal
MCAO mice = experiment: MCAO ischemic stroke model: neurological deficit and infarct volume; format: in vivo, mouse; details: 90 min MCAO, 24 h reperfusion; gabapentin 100 mg/kg i.p. pre- or posttreatment; peptide 200 μg/kg i.p. twice
Method: Gabapentin was administered intraperitoneally (i.p.) either before or after initiating MCAO in separate groups of mice (pretreatment and posttreatment groups). […] Saline at the same volume as the gabapentin was administered i.p. in a vehicle group that also received MCAO.
It was then determined whether the α2δ-1-NMDAR interaction is involved in brain injury and neurological deficits caused by MCAO. In this protocol, MCAO-subjected mice with two injections of α2δ-1Tat peptide or control peptide (both 200 μg/kg, i.p.): one at 15 min before MCAO and another immediately before reperfusion. […] Furthermore, the brain infarct volume was much less in mice treated with α2δ-1Tat peptide than in mice treated with the control peptide (FIG. 22D).
Animal model. All procedures and protocols were approved by the Institutional Animal Care and Use Committee of The University of Texas MD Anderson Cancer Center. Adult male wild-type (WT) and conventional Cacna2d1 knockout (KO) mice (25-30 g, 8-10 weeks of age) were used in the study. MCAO was used in mice as an ischemic stroke model. The neurological deficits of mice subjected to MCAO were evaluated using a modified Longa test on a scale of 0-5. The brain coronal sections were stained using 1% 2,3,5-triphenyltetrazolium chloride (TTC), and the stained sections were captured as digital images and quantified for infarct volume.

calpain = experiment: MCAO: spectrin BD level (calpain activation) in brain tissues; format: in vivo, mouse; details: MCAO WT mice; gabapentin posttreatment; peptide 200 μg/kg i.p. twice
From the text: α2δ-1 and α2δ-1-bound NMDARs contribute to MCAO-induced calpain activation in brain tissues: Cerebral ischemia increases calpain activity, and calpain inhibition is neuroprotective against ischemia-induced brain injury. Spectrin is highly sensitive to proteolysis by calpain, and the stable αIIspectrin breakdown product (spectrin BD, 150 kDa) is commonly used as a biochemical assay for calpain activation.

SNL rats = experiment: Withdrawal thresholds in spinal nerve ligation (SNL), sham and naive rats; format: in vivo, rat
From the text: Animal models of neuropathic pain: All surgical preparations and experimental protocols were approved by the Animal Care and Use Committee of the University of Texas MD Anderson Cancer Center and conformed to the National Institutes of Health guidelines for the ethical use of animals. Male Sprague-Dawley rats (8-10 weeks of age) were purchased from Harlan Laboratories (Indianapolis, Ind.). L5 and L6 spinal nerve ligation (SNL) were used as an experimental model of neuropathic pain (Cole et al., 2005). In brief, anesthesia was induced with 2-3% isoflurane, isolated the left L5-L6 spinal nerves and ligated them tightly with 6-0 silk sutures. The rats in the sham control group underwent the same surgical procedures except for the nerve ligation.
Intrathecal catheters were implanted in some SNL group rats during isoflurane-induced anesthesia 2-3 weeks after SNL surgery. Briefly, the anesthetized animal was placed on a stereotaxic frame, and a small incision was made at the back of its neck. Then, a small puncture was made in the atlanto-occipital membrane of the cisterna magna, and a PE-10 catheter (˜8 cm) was inserted with the caudal tip reaching the lumbar enlargement of the spinal cord (Luo et al., 2001; Patel et al., 2013). The rostral end of the catheter was exteriorized and closed the wound with sutures. The animals were allowed to recover for at least 4 days before the intrathecal injections were performed. Animals displaying signs of motor or neurological dysfunction were immediately killed with an intraperitoneal injection of phenobarbital (200 mg/kg) or by inhalation of CO2.
Behavioral assessments of nociception: To detect tactile allodynia, von Frey filaments were applied to the animals' left hindpaws (ipsilateral to the nerve injury). The rats or mice were placed individually in suspended chambers on a mesh floor. After an acclimation period of 30 min, a series of calibrated von Frey filaments were applied (Stoelting, Wood Dale, Ill.) perpendicularly to the plantar surface of the hindpaw with sufficient force to bend the filament for 6 s. Brisk withdrawal or paw flinching was considered a positive response. After a response, the filament of the next lower force was applied. In the absence of a response, the filament of the next greater force was applied. Using the up-down method, the tactile stimulus that produced a 50% likelihood of a withdrawal response was calculated (Fuller-Bicer et al., 2009).
To quantify the mechanical nociceptive threshold in the rats and mice (Patel et al., 2013; Dolphin et al., 2012), the paw pressure tests were conducted on the hindpaw with an analgesiometer (Ugo Basile, Varese, Italy). The device was activated by pressing a foot pedal, which triggered a motor that applied a constantly increasing force on a linear scale. […]

Compound	ABP and RSNA responses to Ang II after prior peptide microinjection into the PVN (anesthetized rats; peptides 100 μmol/L, 50 nl)	reduction in baseline withdrawal thresholds induced by chronic morphine injections (morphine-treated rats)	reduction in the analgesic effect of morphine (morphine-treated rats)	brain infarct volume (MCAO mice)	neurological deficit score (MCAO mice)	spectrin BD level in cortex, hippocampus and striatum (calpain)	pain hypersensitivity of SNL rats (SNL rats; SNL rats, peptides intrathecal or systemic, siRNA intrathecal)	withdrawal thresholds in sham control rats (SNL rats; sham control rats)	RSNA and mean ABP (anesthetized rats; Ang II 200 μmol/L, 50 nl into the PVN)
YGRKKRRQRRRVSGLNPSLWSIFGLQFILLWLVSGSRHYLW (a2d1 peptide) [α2δ-1Tat peptide, 30-amino-acid peptide mimicking the C-terminal domain of α2δ-1 fused to the cell-penetrating peptide Tat]	failed to significantly increase	completely blocked	substantially attenuated	much less	significantly reduced	significantly reduced	large reduction	had no effect	–
NCC1(CC(=O)O)CCCCC1 [gabapentin]	–	completely blocked	substantially attenuated	much smaller	significantly improved	significantly reduced	–	–	–
Ang II: angiotensin II, obtained from Sigma (DRVYIHPF; Angiotensin-2; UniProt P01019 25-32, looked up)	–	–	–	–	–	–	–	–	significantly increased
